Test results published in ChEMBL document CHEMBL1201862, “PubChem BioAssay data set” (2004).
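Compound exposure: 48 hours, 5 concentrations, 96-well plates. GI50 marks 50% less growth.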 The source made the active and inactive calls. Cut-off read from the data, not from the text of the source: active = GI50 up to about 1.1 µM and inactive = higher.

Assays:
Assay in all cases: inhibition of tumour cell growth, NCI panel, 48 h
[1] = system: ACHN
[2] = system: BT-549
[3] = system: DU-145
[4] = system: HCT-116
[5] = system: HCT-15
[6] = system: HOP-62
[7] = system: HOP-92
[8] = system: Hs-578T
[9] = system: K562
[10] = system: KM12
[11] = system: M14
[12] = system: Malme-3M
[13] = system: NCI-H23
[14] = system: NCI-H460
[15] = system: OVCAR-4
[16] = system: RXF 393
[17] = system: SK-MEL-5
[18] = system: UACC-62
[19] = system: SF-539

| Structure (SMILES) | GI50 [1] | GI50 [2] | GI50 [3] | GI50 [4] | GI50 [5] [µM] | GI50 [6] | GI50 [7] | GI50 [8] | GI50 [9] | GI50 [10] | GI50 [11] | GI50 [12] | GI50 [13] | GI50 [14] | GI50 [15] | GI50 [16] | GI50 [17] | GI50 [18] | GI50 [19] |
| --- | --- | --- | --- | --- | --- | --- | --- | --- | --- | --- | --- | --- | --- | --- | --- | --- | --- | --- | --- |
| c1ccc(NCCSc2nc3ccccc3s2)cc1 | 43.8 µM (inactive) | 34.8 µM (inactive) | 97.1 µM (inactive) | 37.3 µM (inactive) | 18 | > 100 µM (inactive) | 41.1 µM (inactive) | > 100 µM (inactive) | 34 µM (inactive) | 30.9 µM (inactive) | 44.7 µM (inactive) | 44.9 µM (inactive) | 29 µM (inactive) | 30.9 µM (inactive) | 49.8 µM (inactive) | 55.7 µM (inactive) | 21.5 µM (inactive) | 66.5 µM (inactive) | – |
| CCOC(=O)C(NC(=O)c1ccco1)(Nc1nc2ccc(OCC)cc2s1)C(F)(F)F (stereo unspecified) | 26.8 µM (inactive) | 28.6 µM (inactive) | 55.3 µM (inactive) | 27.3 µM (inactive) | 22.9 | – | 15 µM (inactive) | 38.7 µM (inactive) | 27.6 µM (inactive) | 21.8 µM (inactive) | 32.6 µM (inactive) | 37.2 µM (inactive) | 27.3 µM (inactive) | 28.1 µM (inactive) | 30.1 µM (inactive) | 7.82 µM (inactive) | 19.4 µM (inactive) | 35.6 µM (inactive) | 43.2 µM (inactive) |
| CC(=O)OCC1OC(N2C(c3ccccc3)=CC(c3ccccc3)C(C#N)=C2S)C(OC(C)=O)C(OC(C)=O)C1OC(C)=O (stereo unspecified) | 5.58 µM (inactive) | 5.57 µM (inactive) | 26.4 µM (inactive) | 5.92 µM (inactive) | 48.5 | 4.06 µM (inactive) | 3.81 µM (inactive) | 3.27 µM (inactive) | 3.76 µM (inactive) | 15.7 µM (inactive) | 12.6 µM (inactive) | 5.43 µM (inactive) | 7.41 µM (inactive) | 5.48 µM (inactive) | 1.55 µM (inactive) | 3.17 µM (inactive) | 1.64 µM (inactive) | 0.583 µM (active) | 2.56 µM (inactive) |
| CC(C)=CC(=O)c1[nH]c2ccccc2c1CC(=O)NCCc1cn(C(c2ccccc2)(c2ccccc2)c2ccccc2)cn1 | 3.54 µM (inactive) | 3.25 µM (inactive) | 5.13 µM (inactive) | 2.77 µM (inactive) | 3.89 | 11.9 µM (inactive) | 2.49 µM (inactive) | 16.8 µM (inactive) | 2.99 µM (inactive) | 3.29 µM (inactive) | 2.02 µM (inactive) | 5.78 µM (inactive) | 4.69 µM (inactive) | 2.97 µM (inactive) | 3.86 µM (inactive) | 2.81 µM (inactive) | 2.08 µM (inactive) | 1.97 µM (inactive) | 2.69 µM (inactive) |
| S=C1NCCN1C(=S)NC1CCCCC1 | 32.7 µM (inactive) | 21.4 µM (inactive) | 49.8 µM (inactive) | 30.3 µM (inactive) | 29 | 37.6 µM (inactive) | 24.8 µM (inactive) | 21.2 µM (inactive) | 36.8 µM (inactive) | 24.4 µM (inactive) | 22.1 µM (inactive) | 20.8 µM (inactive) | 21.8 µM (inactive) | 20.3 µM (inactive) | 19.3 µM (inactive) | 4.28 µM (inactive) | 22.2 µM (inactive) | 43.7 µM (inactive) | 21 µM (inactive) |
| O=C1/C(=C\Oc2ccc(F)cc2)N2CCC1CC2 | 76.2 µM (inactive) | 55 µM (inactive) | 0.544 µM (active) | 34.8 µM (inactive) | 70.6 | > 100 µM (inactive) | 41.4 µM (inactive) | 28.7 µM (inactive) | 32.7 µM (inactive) | – | > 100 µM (inactive) | 33.3 µM (inactive) | 54.5 µM (inactive) | – | 46.8 µM (inactive) | 25.1 µM (inactive) | 63.5 µM (inactive) | 25.9 µM (inactive) | > 100 µM (inactive) |
| CSC1=NC(=O)CCN1C1OCC(OC(C)=O)C(OC(C)=O)C1OC(C)=O (stereo unspecified) | 17 µM (inactive) | 15.1 µM (inactive) | 19.9 µM (inactive) | 5.45 µM (inactive) | 18.5 | 18.7 µM (inactive) | 14.8 µM (inactive) | 12.6 µM (inactive) | 3.65 µM (inactive) | 21.5 µM (inactive) | > 10 µM (inactive) | 14.3 µM (inactive) | 20.8 µM (inactive) | 10.4 µM (inactive) | 19.2 µM (inactive) | 15.8 µM (inactive) | 10.9 µM (inactive) | 40.6 µM (inactive) | 12.1 µM (inactive) |
| CCO/C=N\c1c(C#N)c(-c2ccc(Cl)cc2)cn1-c1ccc(C)cc1 | > 100 µM (inactive) | > 100 µM (inactive) | > 100 µM (inactive) | > 100 µM (inactive) | > 100 | > 100 µM (inactive) | > 100 µM (inactive) | 95.9 µM (inactive) | > 100 µM (inactive) | – | > 100 µM (inactive) | > 100 µM (inactive) | > 100 µM (inactive) | > 100 µM (inactive) | > 100 µM (inactive) | > 100 µM (inactive) | > 100 µM (inactive) | > 100 µM (inactive) | > 100 µM (inactive) |
| CCCCN1C(=O)N(c2ccc(OCC)cc2)C2N(CCCC)C1C(C)(C)C2(C)C (stereo unspecified) | 27.7 µM (inactive) | 30.3 µM (inactive) | 30.1 µM (inactive) | 31.6 µM (inactive) | 26.6 | 35.9 µM (inactive) | 23.5 µM (inactive) | 18.6 µM (inactive) | – | 34.1 µM (inactive) | 25.1 µM (inactive) | 24.2 µM (inactive) | 24.8 µM (inactive) | 42.2 µM (inactive) | 37.8 µM (inactive) | 16.3 µM (inactive) | 15.7 µM (inactive) | 16.9 µM (inactive) | 16.7 µM (inactive) |
| OCc1cccc(Nc2nc(O)c3[nH]cnc3n2)c1 | > 100 µM (inactive) | > 100 µM (inactive) | > 100 µM (inactive) | > 100 µM (inactive) | > 100 | > 100 µM (inactive) | > 100 µM (inactive) | > 100 µM (inactive) | > 100 µM (inactive) | > 100 µM (inactive) | > 100 µM (inactive) | > 100 µM (inactive) | > 100 µM (inactive) | – | > 100 µM (inactive) | > 100 µM (inactive) | > 100 µM (inactive) | > 100 µM (inactive) | > 100 µM (inactive) |
| O=C1C(Cl)=C(NCCN2CCOCC2)C(=O)c2ncccc21 | 2.82 µM (inactive) | 1.79 µM (inactive) | 1.66 µM (inactive) | 1.82 µM (inactive) | 1.91 | 2.12 µM (inactive) | 2.25 µM (inactive) | 2.11 µM (inactive) | 0.378 µM (active) | 1.73 µM (inactive) | 1.61 µM (inactive) | 1.71 µM (inactive) | 1.62 µM (inactive) | 1.46 µM (inactive) | – | 1.95 µM (inactive) | 0.723 µM (active) | 1.33 µM (inactive) | 1.72 µM (inactive) |
